Results on two substances are retold here after US12433954B2, “Methods of activating anti-CD19 chimeric antigen receptor (CAR) T cells using amphiphilic ligand conjugates comprising CAR-targeting protein sequence motifs” (Massachusetts Institute of Technology, priority 2020, dated 2025).

Ends that are not written are not given here. Some results are limits rather than exact numbers.

One test addresses FMC63 scFv. Put plainly: Yeast clone staining with biotinylated FMC63 scFv, Kd by FACS. The format is binding, mouse. The conditions noted are these: yeast clones, biotinylated FMC63 scFv monomer. As to the method: FIGS. 10A & 10B provide graphs showing binding of yeast clones expressing the indicated mimotopes to biotinylated FMC63 IgG (FIG. 10A) or biotinylated FMC63 scFv (FIG. 10B) at increasing concentration (0.01-1000 nM).
Identifying specific mimotope clones of varying affinities will provide flexibility in treatments. In order to validate specific sequences, clones were isolated and measured for their affinity to FMC63. Specifically, a subset of mimotope clones were selected from the fixed library sequence described in Example 5. […] Given the FDA-approved CAR is an scFV derived from the parental IgG, mimotope binding to FMC63-scFv monomer was tested using biotinylated FMC63 scFV to measure Kd by FACS (FIG. 10B). […] This screen positively identified mimotope clones with varying affinities to FMC63 which may be used for a tailored vaccine approach.

The target of the next test is FMC63 IgG. Kind of test: Yeast clone staining with biotinylated FMC63 IgG, Kd from MFI (FACS). The format is binding, mouse. The conditions noted are these: yeast clones, 0.01-1000 nM biotinylated FMC63 IgG. An excerpt:
In order to validate specific sequences, clones were isolated and measured for their affinity to FMC63. Specifically, a subset of mimotope clones were selected from the fixed library sequence described in Example 5.

The subject of another test is FMC63 CAR T cells. Put plainly: Long-term in vivo boosting, CAR T expansion in peripheral blood. The conditions noted are these: day 13; vaccinations day 2 and day 9 with 25 μg cyclic-di-GMP; lymphodepleted mice; vs control mice. An excerpt:
FIG. 19A depicts a timeline for administration of CD45.1+ donor FMC63 CAR T cells to CD45.2+ recipient mice on Day 1 following lymphodepletion on day 0. The mice were further administered a first dose of amph-mimotope or bivalent amph-mimotope on Day 2 and a second dose on Day 9. Peripheral blood was obtained from the mice on Day 13 and expansion of CD45.1+ CAR T cells were quantified by flow cytometry. FIG. 19B provides plots measuring the percentage of total T cells expressing CD45.1 and FMC63 CAR in peripheral blood isolated on day 13 from mice treated according to FIG. 19A. […] Control mice received no vaccination. […] Briefly, CD45.2^+ recipient mice received lymphodepeletion preconditioning (sublethal irradiation, 500cGy) on day 0. The mice were then administered 1×10^6 CD45.1^+ donor FMC63 CAR T cells on day 1, followed by two vaccinations on day 2 and day 9 using the following formulation: • (i) 10 ug of monovalent amph-mimotope (Amph-K-C2)+25 μg of cyclic-di-GMP in 1×PBS; or • (ii) 20 ug of amph-Bi-F12-mimotope (PEG4 or PEG8)+25 μg of cyclic-di-GMP in 1×PBS. Control mice received no vaccination. On day 13, peripheral blood was collected for analysis of CAR T expansion in response to amph-mimotope vaccine boosting by flow cytometry. CAR T cells were defined as CD45.1^+CAR^+ cells and were quantified as proportion of total CD8+ T cells.

Chain of FMC63 scFv (as listed by the source): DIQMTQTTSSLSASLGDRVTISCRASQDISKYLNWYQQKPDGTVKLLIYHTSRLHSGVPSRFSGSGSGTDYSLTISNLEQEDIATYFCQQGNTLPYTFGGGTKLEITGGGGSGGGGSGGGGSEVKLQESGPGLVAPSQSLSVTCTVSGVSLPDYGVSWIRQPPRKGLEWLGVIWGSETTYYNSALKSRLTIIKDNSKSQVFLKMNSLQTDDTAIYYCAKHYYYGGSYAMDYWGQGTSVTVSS
Chain of FMC63 IgG (as listed by the source): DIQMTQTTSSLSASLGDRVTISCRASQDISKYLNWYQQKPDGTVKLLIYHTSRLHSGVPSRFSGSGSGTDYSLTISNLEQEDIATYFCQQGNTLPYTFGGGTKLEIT
Chain of FMC63 IgG (as listed by the source): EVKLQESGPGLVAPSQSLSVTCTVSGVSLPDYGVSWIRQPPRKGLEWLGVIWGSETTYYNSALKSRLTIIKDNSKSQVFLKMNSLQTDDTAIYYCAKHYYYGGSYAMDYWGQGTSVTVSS

As a reminder, the Kd is the constant that tells how readily two partners part at equilibrium. With “D12 (RICPWSCRAP; Synthetic FMC63 Mimotope (D12)) [Clone D12]”, the Kd at FMC63 scFv and at FMC63 IgG was greater than 1000 nM in each case.
In the case of “amph-bi-F12-peg8 (GGGSASRICPWNCKEL; not fully specified (C-terminus); cysteine pairing not given here; also: bivalent amphiphile conjugate via C-terminal PEG8 linker)”, the “expansion of CAR T cells (CD45.1+CAR+ of total CD8+ T cells) in peripheral blood” value in the test with FMC63 CAR T cells is on record as “highest level of proliferation”.
